Source: paper PMC12480552 (Scientific Reports, 2025)
Where “and” joins values, the source holds several entries; their conditions need not be identical. Identical values can stand only once. Like-named read-outs stand apart in the source and are kept apart here.

Key:
[1] = 43 patients, phase 0 cohort, 200 or 300 mg once daily 4 days, cited from earlier work
[2] = MALDI MSI of brain sections, biodistribution in healthy nonhuman primates; conditions: for concentration at 4 h: male, rhesus monkey, oral, 6 mg/kg
Description: Animals were randomized using the GSK Randomization App 2.0, which is an internal software tool that uses the ‘sample’ function in R to randomly shuffle animal IDs, then assigns them to treatment groups to ensure unbiased allocation.
Before each dose, animals were lightly sedated with an intramuscular injection of ketamine (5–10 mg/kg), and a blood sample was drawn. […] NHPs were euthanized by administering an overdose of injected sodium pentobarbital IV (150–200 mg/kg) and confirmed by thoracotomy and exsanguination. Terminal plasma, cerebrospinal fluid, and brain tissue were collected at necropsy. […] The brain was cut into six roughly 1-cm thick coronal segments before snap-freezing by floating on liquid nitrogen. The right hemispheres of the four interior coronal brain segments were cryosectioned and analyzed by matrix-assisted laser desorption/ionization mass spectrometry imaging (MALDI MSI) to quantitatively assess the tissue distribution of the dosed compounds[40]–[43]. After MALDI MSI analysis, tissue sections were stained with hematoxylin and eosin (H&E) for correlation of ion images with underlying tissue histology.
For both the nonhuman primate (NHP) and mouse metastases model studies, brain tissue sections of 6-µm thickness were prepared on a Leica CM1950 cryostat (Leica Biosystems, Danvers, MA). For the NHP study, tissue sections were collected from four of the coronal brain segments from each animal. From each coronal segment, three tissue sections were collected for MALDI MSI, one section for hematoxylin and eosin (H&E) staining, and roughly 30 sections were collected into a pre-weighed vial for homogenization and liquid chromatography–tandem mass spectrometry (LC-MS/MS) bioanalysis. The three sections for MALDI MSI were thaw-mounted onto double-width indium tin oxide–coated slides (BigSlides; Bruker Daltonics, Billerica, MA) that had been pretreated with a poly-L-lysine solution to improve tissue adherence. The section for H&E staining was thaw-mounted onto a standard double-width glass microscope slide.
A gelatin cast of the mimetic model was prepared by pipetting a warmed (50 °C) 15% gelatin solution into a tissue microarray mold (Arraymold kit C, 4 mm, 15 cores; Arraymold, Ogden, UT). The gelatin cast was then frozen overnight at (− 20 °C). Bulk homogenate of control rat brain tissue was prepared using an Omni Bead Ruptor Elite bead mill homogenizer (Omni International, Kennesaw, GA). […] The gelatin cast was warmed to room temperature, and the spiked homogenates were pipetted into each of the individual wells. The cast and homogenate were then frozen by floating on liquid nitrogen and stored at − 80 °C. Cryosections (6-µm thickness) of the mimetic tissue model were then collected on the same slide as the sample tissue to be quantified.
Slides were coated with a TM Sprayer (HTX Technologies, Chapel Hill, NC) using the following parameters: 0.1-mL/min flowrate, 70 °C, 3-mm track spacing with CC pattern, and 8 passes.
MALDI MSI was performed on either a Bruker ScimaX (7T) or a Bruker SolariX (7T) FT-ICR mass spectrometer. […] Both narrowband and CASI windows were centered between parent and internal standard m/z. The small laser focus was used with 200 laser shots per position, and the laser power was adjusted in accordance with a quality control sample acquired just before initiating the imaging sequence.
After MALDI MSI acquisition, slides were immersed in 100% ethanol for 5 min to remove the MALDI matrix. Slides were then stained with H&E and digitally scanned. Ion images were loaded into flexImaging (Bruker Daltonics), the post–MALDI H&E image was coregistered, and key regions of interest (ROIs) for the tissue and mimetic model were drawn. […] This stipulation was implemented to avoid internal standard normalization of noise, which can introduce artifactual distributions.

[3] = oral dosing in NHPs; ref data not reported; cited from earlier work

MALDI MSI Brain sections, mean (SD) ([2]; healthy rhesus macaques, individual animals, oral once daily 5 days, niraparib 6 mg/kg (4 h after last dose), olaparib 10 mg/kg (2–2.5 h), total concentration, LOD 20 ng/g niraparib, 70 ng/g olaparib): 283 (69) ng/g and 684 (189) ng/g
concentration at 4 h ([2]; brain (coronal Region 1 sections), MALDI MSI Mean Conc. by brain region, NHP-1, Region 1, 3 sections, Fig. 1B): 268 ng/g
concentration at 4 h ([2]; brain (coronal Region 1 sections), MALDI MSI Mean Conc. by brain region, NHP-2, Region 1, 3 sections, Fig. 1B): 524 ng/g
concentration at 4 h ([2]; brain (coronal Region 2 sections), MALDI MSI Mean Conc. by brain region, NHP-1, Region 2, 3 sections, Fig. 1B): 287 ng/g
concentration at 4 h ([2]; brain (coronal Region 2 sections), MALDI MSI Mean Conc. by brain region, NHP-2, Region 2, 3 sections, Fig. 1B): 610 ng/g
concentration at 4 h ([2]; brain (coronal Region 3 sections), MALDI MSI Mean Conc. by brain region, NHP-1, Region 3, 3 sections, Fig. 1B): 217 ng/g
concentration at 4 h ([2]; brain (coronal Region 3 sections), MALDI MSI Mean Conc. by brain region, NHP-2, Region 3, 3 sections, Fig. 1B): 822 ng/g
concentration at 4 h ([2]; brain (coronal Region 4 sections), MALDI MSI Mean Conc. by brain region, NHP-1, Region 4, 3 sections, Fig. 1B): 362 ng/g
concentration at 4 h ([2]; brain (coronal Region 4 sections), MALDI MSI Mean Conc. by brain region, NHP-2, Region 4, 3 sections, Fig. 1B): 781 ng/g
concentration at 4 h ([2]; brain blood vessel, Niraparib Mean Conc. in histological ROI, NHP-1, Blood Vessel, Fig. 1D): 779 ng/g
concentration at 4 h ([2]; brain blood vessel, Niraparib Mean Conc. in histological ROI, NHP-2, Blood Vessel, Fig. 1D): 1210 ng/g
concentration at 4 h ([2]; brain gray matter, Niraparib Mean Conc. in histological ROI, NHP-1, Gray Matter, Fig. 1D): 292 ng/g
concentration at 4 h ([2]; brain gray matter, Niraparib Mean Conc. in histological ROI, NHP-2, Gray Matter, Fig. 1D): 743 ng/g
concentration at 4 h ([2]; brain parenchyma, mean unbound niraparib concentration in the brain parenchyma, healthy rhesus macaques, estimated from MALDI MSI): ~15 ng/g
concentration at 4 h ([2]; brain ventricle, Niraparib Mean Conc. in histological ROI, NHP-1, Ventricle, Fig. 1D): 3360 ng/g
concentration at 4 h ([2]; brain ventricle, Niraparib Mean Conc. in histological ROI, NHP-2, Ventricle, Fig. 1D): 4830 ng/g
concentration at 4 h ([2]; brain white matter, Niraparib Mean Conc. in histological ROI, NHP-1, White Matter, Fig. 1D): 177 ng/g
concentration at 4 h ([2]; brain white matter, Niraparib Mean Conc. in histological ROI, NHP-2, White Matter, Fig. 1D): 350 ng/g
Compound: NC(=O)c1cccc2cn(-c3ccc([C@@H]4CCCNC4)cc3)nc12 [Niraparib]
Kp, tumor ([1]; gadolinium-enhanced tissue): 7.5
Kp, tumor ([1]; nonenhanced tissue): 4.2
plasma time to peak drug concentration (Tmax) [3]: ≈ 4 h
